Activity calls are given as the source filed them. No cut-off for these calls is given here.
Columns and labels:
[1] = Selectivity index, ratio of IC50 for electric eel AChE to IC50 for equine serum BuChE
[2] = Antioxidant activity assessed as DPPH radical scavenging activity at 20 uM after 25 mins; format: functional
[3] = Antioxidant activity assessed as DPPH radical scavenging activity at 10 uM after 25 mins; format: functional
Mus musculus [4] = experiment: Restoration of brain catalase level in scopolamine-induced Swiss albino mouse amnesia model at 10 mg/kg, ip administered once daily for 7 days followed by scopolamine challenge by spectrophotometric analysis; format: functional, organism-based
Mus musculus [5] = experiment: Antialzheimer activity in Swiss albino mouse assessed as reversal of scopolamine-induced AChE level in brain at 10 mg/kg, ip administered once daily for 7 days followed by scopalamine challenge using acetylthiocholine iodide as substrate by Ellman's method; format: functional, organism-based
Mus musculus [6] = experiment: Restoration of brain mitochondrial membrane potential in scopolamine-induced Swiss albino mouse amnesia model at 5 mg/kg, ip administered once daily for 7 days followed by scopolamine challenge by tetramethylrhodamine dye-based fluorescence assay; format: functional, organism-based
Mus musculus [7] = experiment: Reversal of scopolamine-induced neophobia in Swiss albino mouse assessed as increase in number of novel arm entries at 5 to 10 mg/kg, ip administered once daily for 7 days prior to 4 hrs of training followed by scopolamine challenge and measured after 5 mins by Y-maze test; format: functional, organism-based
Mus musculus [8] = experiment: Neuroprotective activity in scopolamine-induced amnesia Swiss albino mouse model assessed as decrease in neurodegenerative lesions in brain at 10 mg/kg, ip administered once daily for 7 days followed by scopolamine challenge by histopathological method; format: functional, organism-based
Mus musculus [9] = experiment: Reversal of scopolamine-induced anxiety in Swiss albino mouse assessed as increase in number of novel arm entries at 5 to 10 mg/kg, ip administered once daily for 7 days prior to 4 hrs of training followed by scopolamine challenge and measured after 5 mins by Y-maze test; format: functional, organism-based
Mus musculus [10] = experiment: Reversal of scopolamine-induced amnesic effect in Swiss albino mouse assessed as reversal of lowered spontaneous alteration at 10 mg/kg, ip administered once daily for 7 days prior to 4 hrs of training followed by scopolamine challenge and measured after 5 mins by Y-maze test; format: functional, organism-based
Mus musculus [11] = experiment: Anxiolytic activity in Swiss albino mouse assessed as increase in time spent in novel arm at 20 mg/kg, ip administered once daily for 7 days prior to 4 hrs of training followed by scopolamine challenge and measured after 5 mins by Y-maze test; format: functional, organism-based
Mus musculus [12] = experiment: Reversal of scopolamine-induced anxiety in Swiss albino mouse assessed as increase in number of novel arm entries at 5 mg/kg, ip administered once daily for 7 days prior to 4 hrs of training followed by scopolamine challenge and measured after 5 mins by Y-maze test; format: functional, organism-based
[13] = target: Acetylcholinesterase (Electrophorus electricus) (UniProt O42275); experiment: Ratio of Vmax to Km for substrate for inhibition of electric eel AChE at 10 nM preincubated for 30 mins followed acetylthiocholine iodide substrate addition by Lineweaver-Burk plot analysis
Mus musculus [14] = experiment: Reversal of scopolamine-induced amnesic effect in Swiss albino mouse assessed as reversal of lowered spontaneous alteration at 5 mg/kg, ip administered once daily for 7 days prior to 4 hrs of training followed by scopolamine challenge and measured after 5 mins by Y-maze test; format: functional, organism-based
Mus musculus [15] = experiment: Reversal of scopolamine-induced neophobia in Swiss albino mouse assessed as increase in number of novel arm entries at 10 mg/kg, ip administered once daily for 7 days prior to 4 hrs of training followed by scopolamine challenge and measured after 5 mins by Y-maze test; format: functional, organism-based
[16] = Metal chelating activity assessed as compound-Cu2+ complex formation at 600 uM after 8 hrs by UV spectroscopic analysis
Mus musculus [17] = experiment: Antialzheimer activity in Swiss albino mouse assessed as reversal of scopolamine-induced AChE level in brain at 5 mg/kg, ip administered once daily for 7 days followed by scopalamine challenge using acetylthiocholine iodide as substrate by Ellman's method; format: functional, organism-based
Mus musculus [18] = experiment: Reversal of scopolamine-induced neophobia in Swiss albino mouse assessed as increase in number of novel arm entries at 5 mg/kg, ip administered once daily for 7 days prior to 4 hrs of training followed by scopolamine challenge and measured after 5 mins by Y-maze test; format: functional, organism-based
[19] = target: Acetylcholinesterase (Electrophorus electricus) (UniProt O42275); experiment: Ratio of Vmax to Km for substrate for inhibition of electric eel AChE at 40 nM preincubated for 30 mins followed acetylthiocholine iodide substrate addition by Lineweaver-Burk plot analysis
Mus musculus [20] = experiment: Reversal of scopolamine-induced memory deficit in ip dosed Swiss albino mouse assessed as increase in transfer latency time of retention trial administered once daily for 7 days followed by scopolamine challenge and subsequent training session for 5 mins by passive avoidance test; format: functional, organism-based
Mus musculus [21] = experiment: Reversal of scopolamine-induced anxiety in Swiss albino mouse assessed as increase in number of novel arm entries at 10 mg/kg, ip administered once daily for 7 days prior to 4 hrs of training followed by scopolamine challenge and measured after 5 mins by Y-maze test; format: functional, organism-based
[22] = target: Acetylcholinesterase (Electrophorus electricus) (UniProt O42275); experiment: Ratio of Vmax to Km for substrate for inhibition of electric eel AChE at 20 nM preincubated for 30 mins followed acetylthiocholine iodide substrate addition by Lineweaver-Burk plot analysis
Mus musculus [23] = experiment: Reversal of scopolamine-induced memory deficit in Swiss albino mouse assessed as increase in transfer latency time of retention trial at 10 mg/kg, ip administered once daily for 7 days followed by scopolamine challenge and subsequent training session for 5 mins by passive avoidance test; format: functional, organism-based

Sequence of Acetylcholinesterase (Electrophorus electricus) (O42275 24-633 limits assumed): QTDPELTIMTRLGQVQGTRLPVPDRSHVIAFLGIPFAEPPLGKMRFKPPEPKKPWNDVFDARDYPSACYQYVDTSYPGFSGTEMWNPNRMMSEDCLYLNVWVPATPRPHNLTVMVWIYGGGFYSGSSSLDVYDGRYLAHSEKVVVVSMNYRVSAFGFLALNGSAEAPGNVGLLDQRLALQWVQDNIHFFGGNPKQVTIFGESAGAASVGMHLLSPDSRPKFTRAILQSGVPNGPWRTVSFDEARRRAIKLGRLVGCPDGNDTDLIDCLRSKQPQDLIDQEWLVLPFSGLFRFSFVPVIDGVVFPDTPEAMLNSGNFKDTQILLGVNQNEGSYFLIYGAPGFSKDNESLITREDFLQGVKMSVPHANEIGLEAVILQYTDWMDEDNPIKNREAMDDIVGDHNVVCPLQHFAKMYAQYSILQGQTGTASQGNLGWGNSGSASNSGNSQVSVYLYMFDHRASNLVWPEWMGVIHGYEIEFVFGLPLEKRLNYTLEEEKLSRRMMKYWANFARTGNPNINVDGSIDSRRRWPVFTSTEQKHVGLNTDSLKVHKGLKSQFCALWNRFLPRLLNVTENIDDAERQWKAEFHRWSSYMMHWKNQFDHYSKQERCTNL

Structure (SMILES) | Ratio IC50 [1] | Activity [2] [%] | Activity [3] [%] | also measured
O=C1C(Cc2ccccc2)N(S(=O)(=O)c2cccc(O)c2)C(=O)C(Cc2ccccc2)N1S(=O)(=O)c1cccc(O)c1 (stereo unspecified) | 0.3 | 66.2 | 57.1 | –
COc1ccc(S(=O)(=O)N2CC(=O)N(S(=O)(=O)c3ccc(OC)cc3)CC2=O)cc1 | < 0.5 | 57.6 | 48.6 | –
O=C1C(Cc2ccccc2)N(S(=O)(=O)c2ccc(Cl)cc2)C(=O)C(Cc2ccccc2)N1S(=O)(=O)c1ccc(Cl)cc1 (stereo unspecified) | 0.2 | 60 | 48.1 | Activity (Mus musculus [4]): Active; Activity (Mus musculus [5]): Active; Activity (Mus musculus [6]): Active; Activity (Mus musculus [7]): Active; Activity (Mus musculus [8]): Active; Activity (Mus musculus [9]): Active; Activity (Mus musculus [10]): Active; Activity (Mus musculus [11]): Active
O=C1CN(S(=O)(=O)c2ccc(F)cc2)C(=O)CN1S(=O)(=O)c1ccc(F)cc1 | 0.4 | 50.5 | 37.1 | –
O=C1C(c2ccccc2)N(S(=O)(=O)c2ccc([N+](=O)[O-])cc2)C(=O)C(c2ccccc2)N1S(=O)(=O)c1ccc([N+](=O)[O-])cc1 (stereo unspecified) | 0.3 | 54.3 | 42.4 | –
Cc1cccc(S(=O)(=O)N2C(=O)C(c3ccccc3)N(S(=O)(=O)c3cccc(C)c3)C(=O)C2c2ccccc2)c1 (stereo unspecified) | < 0.4 | 55.2 | 38.6 | –
Nc1ccc(S(=O)(=O)N2C(=O)C(c3ccccc3)N(S(=O)(=O)c3ccc(N)cc3)C(=O)C2c2ccccc2)cc1 (stereo unspecified) | < 0.5 | 66.7 | 56.2 | –
O=C1C(Cc2ccccc2)N(S(=O)(=O)c2ccc(Br)cc2)C(=O)C(Cc2ccccc2)N1S(=O)(=O)c1ccc(Br)cc1 (stereo unspecified) | 0.3 | 64.8 | 47.6 | –
O=C1O[C@H]([C@@H](O)CO)C(O)=C1O | – | 48.8 | 37.1 | –
O=C1C(c2ccccc2)N(S(=O)(=O)c2cccc(Br)c2)C(=O)C(c2ccccc2)N1S(=O)(=O)c1cccc(Br)c1 (stereo unspecified) | 0.4 | 63.3 | 46.2 | –
O=C1C(Cc2ccccc2)N(S(=O)(=O)c2ccc([N+](=O)[O-])cc2)C(=O)C(Cc2ccccc2)N1S(=O)(=O)c1ccc([N+](=O)[O-])cc1 (stereo unspecified) | 0.4 | 54.8 | 42.9 | –
CCCCS(=O)(=O)N1CC(=O)N(S(=O)(=O)CCCC)CC1=O | – | 56.7 | 65.7 | –
O=C1C(c2ccccc2)N(S(=O)(=O)c2ccc(Br)cc2)C(=O)C(c2ccccc2)N1S(=O)(=O)c1ccc(Br)cc1 (stereo unspecified) | 0.2 | 63.8 | 45.7 | –
O=C1C(c2ccccc2)N(S(=O)(=O)c2ccc(Cl)cc2)C(=O)C(c2ccccc2)N1S(=O)(=O)c1ccc(Cl)cc1 (stereo unspecified) | 0.2 | 60.3 | 52.9 | Activity (Mus musculus [12]): Active; Vmax/Km [13]: 0.104 U/min/nM; Activity (Mus musculus [14]): Active; Activity (Mus musculus [15]): inactive; Activity [16]: Active; Activity (Mus musculus [17]): Active; Activity (Mus musculus [18]): Active; Vmax/Km [19]: 0.00052 U/min/nM; Activity (Mus musculus [6]): Active; Activity (Mus musculus [20]): Dose-dependent effect; Activity (Mus musculus [8]): Active; Activity (Mus musculus [21]): inactive; Vmax/Km [22]: 0.0696 U/min/nM; Activity (Mus musculus [11]): Active
O=C1CN(S(=O)(=O)c2ccc(Cl)cc2)C(=O)CN1S(=O)(=O)c1ccc(Cl)cc1 | 0.3 | 55.2 | 36.2 | –
O=C1C(Cc2ccccc2)N(S(=O)(=O)c2cccc(Br)c2)C(=O)C(Cc2ccccc2)N1S(=O)(=O)c1cccc(Br)c1 (stereo unspecified) | 0.4 | 64.3 | 46.7 | –
Nc1ccc(S(=O)(=O)N2CC(=O)N(S(=O)(=O)c3ccc(N)cc3)CC2=O)cc1 | < 0.4 | 62.9 | 55.7 | –
O=C1CN(S(=O)(=O)c2ccc(Br)cc2)C(=O)CN1S(=O)(=O)c1ccc(Br)cc1 | 0.4 | 60.4 | 47.1 | –
CCCS(=O)(=O)N1CC(=O)N(S(=O)(=O)CCC)CC1=O | – | 59.2 | 31.4 | –
O=C1C(c2ccccc2)N(S(=O)(=O)c2ccc(O)cc2)C(=O)C(c2ccccc2)N1S(=O)(=O)c1ccc(O)cc1 (stereo unspecified) | < 0.4 | 65.2 | 52.9 | –
Cc1ccc(S(=O)(=O)N2C(=O)C(c3ccccc3)N(S(=O)(=O)c3ccc(C)cc3)C(=O)C2c2ccccc2)cc1 (stereo unspecified) | < 0.4 | 56.2 | 38.1 | –
O=C1CN(S(=O)(=O)c2ccccc2)C(=O)CN1S(=O)(=O)c1ccccc1 | – | 52.4 | 39.5 | –
O=C1C(Cc2ccccc2)N(S(=O)(=O)c2ccc(O)cc2)C(=O)C(Cc2ccccc2)N1S(=O)(=O)c1ccc(O)cc1 (stereo unspecified) | 0.3 | 68.6 | 58.1 | –
Cc1ccc(S(=O)(=O)N2CC(=O)N(S(=O)(=O)c3ccc(C)cc3)CC2=O)cc1 | < 0.6 | 46.7 | 34.8 | –
COc1cc2c(cc1OC)C(=O)C(CC1CCN(Cc3ccccc3)CC1)C2 (stereo unspecified) | – | 74.6 | 60.1 | Activity (Mus musculus [23]): Active
O=C1CN(S(=O)(=O)c2cccc(Cl)c2)C(=O)CN1S(=O)(=O)c1cccc(Cl)c1 | 0.3 | 55.2 | 35.7 | –
